Experimental data reported in patent US9469650B2, “Melampomagnolide B derivatives” (BOARD OF TRUSTEES OF THE UNIVERSITY OF ARKANSAS, priority 2013, dated 2016).
Read-outs that look alike come from different tables or passages of the source.

What was measured:
[1] = tested on: HL-60(TB)
[2] = tested on: K-562; assay: panel of 60 human tumor cell lines, growth inhibition (Leukemia); conditions: for GI50 / CC50: Homo sapiens; for GI50: K562; for CC50: K562, read-out: LC50; for TGI / Percent Growth: K-562
[3] = tested on: MOLT-4; assay: as above; conditions: Homo sapiens; for GI50: MOLT-4; for CC50: MOLT-4, read-out: LC50; for IC (TGI): MOLT-4, read-out: TGI
[4] = tested on: SR; assay: as above; conditions: Homo sapiens; for CC50: read-out: LC50; for IC (TGI): read-out: TGI
[5] = tested on: LOX IMVI; assay: panel of 60 human tumor cell lines, growth inhibition (Melanoma); conditions: Homo sapiens; for CC50: read-out: LC50; for IC (TGI): read-out: TGI
[6] = tested on: M14; assay: as above; conditions: Homo sapiens; for GI50: M14; for CC50: M14, read-out: LC50; for IC (TGI): M14, read-out: TGI
[7] = tested on: SK-MEL-28; assay: as above; conditions: Homo sapiens; for GI50: SK-MEL-28; for CC50: SK-MEL-28, read-out: LC50; for IC (TGI): SK-MEL-28, read-out: TGI
[8] = tested on: SF-268; assay: panel of 60 human tumor cell lines, growth inhibition (CNS Cancer); conditions: Homo sapiens; for GI50: SF-268; for CC50: SF-268, read-out: LC50; for IC (TGI): SF-268, read-out: TGI
[9] = tested on: SF-295; assay: as above; conditions: Homo sapiens; for GI50: SF-295; for CC50: SF-295, read-out: LC50; for IC (TGI): SF-295, read-out: TGI
[10] = tested on: SNB-19; assay: as above; conditions: Homo sapiens; for GI50: SNB-19; for CC50: SNB-19, read-out: LC50; for IC (TGI): SNB-19, read-out: TGI
[11] = tested on: SNB-75; assay: as above; conditions: Homo sapiens; for GI50: SNB-75; for CC50: SNB-75, read-out: LC50; for IC (TGI): SNB-75, read-out: TGI
[12] = tested on: HCC-2998; assay: panel of 60 human tumor cell lines, growth inhibition (Colon Cancer); conditions: Homo sapiens; for GI50: HCC 2998; for CC50: HCC 2998, read-out: LC50; for IC (TGI): HCC 2998, read-out: TGI
[13] = tested on: SW-620; assay: as above; conditions: Homo sapiens; for GI50: SW-620, SW-620; for CC50: SW-620, read-out: LC50; for IC (TGI): SW-620, read-out: TGI
[14] = tested on: ACHN; assay: panel of 60 human tumor cell lines, growth inhibition (Renal Cancer); conditions: Homo sapiens; for CC50: read-out: LC50; for IC (TGI): read-out: TGI
[15] = tested on: CAKI-1; assay: as above; conditions: Homo sapiens; for GI50: CAKI-1; for CC50: CAKI-1, read-out: LC50; for IC (TGI): CAKI-1, read-out: TGI
[16] = tested on: UO-31; assay: as above; conditions: Homo sapiens; for GI50: UO-31; for CC50: UO-31, read-out: LC50; for IC (TGI): UO-31, read-out: TGI
[17] = tested on: HS 578T; assay: panel of 60 human tumor cell lines, growth inhibition (Breast Cancer); conditions: Homo sapiens, Hs-578T; for CC50: read-out: LC50; for IC (TGI): read-out: TGI
[18] = tested on: T-47D; assay: as above; conditions: Homo sapiens, T47D; for CC50: read-out: LC50; for IC (TGI): read-out: TGI
[19] = tested on: NCI-H226; assay: panel of 60 human tumor cell lines, growth inhibition (Non-Small Cell Lung Cancer); conditions: Homo sapiens; for GI50: NCI-H226; for CC50: NCI-H226, read-out: LC50

## C=C1C(=O)O[C@H]2[C@H]1CC/C(COC(=O)OCCCN1CCCCC1)=C\CC[C@@]1(C)O[C@@H]21 [JVM 2-26]
[1]; Log10 Concentration −4.0
  Percent Growth: −50%
[1]; Log10 Concentration −5.0
  Percent Growth: −10%
[1]; Log10 Concentration −6.0
  Percent Growth: 73%
[1]; Log10 Concentration −7.0
  Percent Growth: 64%
[1]; Log10 Concentration −8.0
  Percent Growth: 93%
[2]
  GI50: 3.27 µM
  CC50: > 100 µM
  TGI: 1.52E−5
[2]; Log10 Concentration −4.0
  Percent Growth: −42%
[2]; Log10 Concentration −5.0
  Percent Growth: 9%
[2]; Log10 Concentration −6.0
  Percent Growth: 93%
[2]; Log10 Concentration −7.0
  Percent Growth: 96. %
[2]; Log10 Concentration −8.0
  Percent Growth: 100%
[3]
  GI50: 4.07 µM
  CC50: 98.7 µM
  IC (TGI): 10.4 µM
[4]
  GI50: 2.12 µM
  CC50: 83.9 µM
  IC (TGI): 10.2 µM
[5]
  GI50: 3.15 µM
  CC50: 37.8 µM
  IC (TGI): 11.7 µM
[6]
  GI50: 3.85 µM
  CC50: 41.1 µM
  IC (TGI): 15.5 µM
[7]
  GI50: 3.83 µM
  CC50: 41 µM
  IC (TGI): 15.5 µM
[8]
  GI50: 6.14 µM
  CC50: 53.2 µM
  IC (TGI): 20.6 µM
[9]
  GI50: 15.4 µM
  CC50: 73.2 µM
  IC (TGI): 33.5 µM
[10]
  GI50: 13.5 µM
  CC50: 56.3 µM
  IC (TGI): 27.5 µM
[11]
  GI50: 2.59 µM
  CC50: 40.6 µM
  IC (TGI): 16.5 µM
[12]
  GI50: 14.4 µM
  CC50: 60.1 µM
  IC (TGI): 19.4 µM
[13]
  GI50: 2.23 µM
  CC50: 37.3 µM
  IC (TGI): 8.74 µM
[14]
  GI50: 2.14 µM
  CC50: 31.5 µM
  IC (TGI): 8.06 µM
[15]
  GI50: 2.19 µM
  CC50: 34.5 µM
  IC (TGI): 11.9 µM
[16]
  GI50: 2.36 µM
  CC50: 46.3 µM
  IC (TGI): 12.5 µM
[17]
  GI50: 4.96 µM
  CC50: > 100 µM
  IC (TGI): 26.8 µM
[18]
  GI50: 2.34 µM
  CC50: 45.9 µM
  IC (TGI): 8.12 µM
[19]
  GI50: 4.43 µM
  CC50: 79.8 µM

## C=C1C(=O)O[C@H]2[C@H]1CC/C(COC(=O)NCCCCCCO)=C\CC[C@@]1(C)O[C@@H]21 [JVM 2-31]
[1]; Log10 Concentration −4.0
  Percent Growth: −49%
[1]; Log10 Concentration −5.0
  Percent Growth: 9%
[1]; Log10 Concentration −6.0
  Percent Growth: 103%
[1]; Log10 Concentration −7.0
  Percent Growth: 107%
[1]; Log10 Concentration −8.0
  Percent Growth: 115%
[2]
  GI50: 4.96 µM
  CC50: > 100 µM
[2]; Log10 Concentration −4.0
  Percent Growth: −33%
[2]; Log10 Concentration −5.0
  Percent Growth: 28%
[2]; Log10 Concentration −6.0
  Percent Growth: 101%
[2]; Log10 Concentration −7.0
  Percent Growth: 113%
[2]; Log10 Concentration −8.0
  Percent Growth: 102%
[2]; NCI five dose
  TGI: 2.88E−5
[3]
  GI50: 5.33 µM
  CC50: > 100 µM
  IC (TGI): 26.6 µM
[4]
  GI50: 2.35 µM
  CC50: > 100 µM
  IC (TGI): 13.3 µM
[5]; NCI five dose
  GI50: 3.45 µM
[5]
  CC50: 42.1 µM
  IC (TGI): 13.1 µM
[6]
  GI50: 4.5 µM
  CC50: 46.7 µM
  IC (TGI): 17.4 µM
[7]
  GI50: 5.21 µM
  CC50: 43.7 µM
  IC (TGI): 18.1 µM
[8]
  GI50: 8.59 µM
  CC50: 73 µM
  IC (TGI): 26 µM
[9]
  GI50: 14.8 µM
  CC50: 85.8 µM
  IC (TGI): 35.7 µM
[10]
  GI50: 16.7 µM
  CC50: > 100 µM
  IC (TGI): 51.3 µM
[11]
  GI50: 5.84 µM
  CC50: 45.6 µM
  IC (TGI): 20.1 µM
[12]
  GI50: 15.6 µM
  CC50: 61.9 µM
  IC (TGI): 31.1 µM
[13]; NCI five dose
  GI50: 2.93 µM
[13]
  CC50: 74 µM
  IC (TGI): 13.3 µM
[14]
  GI50: 3.21 µM
  CC50: 49.6 µM
  IC (TGI): 13.6 µM
[15]
  GI50: 3.44 µM
  CC50: 40.2 µM
  IC (TGI): 15.5 µM
[16]
  GI50: 5.91 µM
  CC50: 62.6 µM
  IC (TGI): 21.2 µM
[17]
  GI50: 3.92 µM
  CC50: > 100 µM
  IC (TGI): 85.7 µM
[18]
  GI50: 2.78 µM
  CC50: 87.9 µM
  IC (TGI): 10 µM
[19]
  GI50: 4.92 µM
  CC50: 87.2 µM
[19]; NCI-H226, read-out: TGI
  IC (TGI): 23.9 µM
